PubChem BioAssay AID1963834 (Molecular Pharmacology Branch, DTP, NCI, 2024)

System: 873145-292-R-J1-PDC complex spheroid viability
Experiment: Anticancer human tumor 873145-292-R-J1-PDC patient-derived renal clear cell carcinoma cell line growth inhibition [POLQ]
Conditions: for IC50: curve of first compound; for viability, T/C: stronger effect = lower value; active = viability on the fitted dose curve at most 10% of control; inactive = the rest
Method in brief: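 Complex spheroid viability model combining PDC tumour cells with endothelial (HUVEC) and MSC stromal cells. Novobiocin, ART-558 or RP6685 were tested singly and in combination with standard and investigational anticancer drugs. Each was titrated in half-log steps from near clinical Cmax, or from 10 microM where Cmax was unknown.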

[1] = second compound 0.0316 µM, first compound 0.0316 µM
[2] = second compound 0.0316 µM, first compound 0.1 µM
[3] = second compound 0.0316 µM, first compound 0.316 µM
[4] = second compound 0.0316 µM, first compound 1 µM
[5] = second compound 0.0316 µM, first compound 3.16 µM
[6] = second compound 0.0316 µM, first compound 10 µM
[7] = second compound 0.1 µM, first compound 0.0316 µM
[8] = second compound 0.1 µM, first compound 0.1 µM
[9] = second compound 0.1 µM, first compound 0.316 µM
[10] = second compound 0.1 µM, first compound 1 µM
[11] = second compound 0.1 µM, first compound 3.16 µM
[12] = second compound 0.1 µM, first compound 10 µM
[13] = second compound 0.316 µM, first compound 0.0316 µM
[14] = second compound 0.316 µM, first compound 0.1 µM
[15] = second compound 0.316 µM, first compound 0.316 µM
[16] = second compound 0.316 µM, first compound 1 µM
[17] = second compound 0.316 µM, first compound 3.16 µM
[18] = second compound 0.316 µM, first compound 10 µM
[19] = second compound 1 µM, first compound 0.0316 µM
[20] = second compound 1 µM, first compound 0.1 µM
[21] = second compound 1 µM, first compound 0.316 µM
[22] = second compound 1 µM, first compound 1 µM
[23] = second compound 1 µM, first compound 3.16 µM
[24] = second compound 1 µM, first compound 10 µM
[25] = second compound 3.16 µM, first compound 0.0316 µM
[26] = second compound 3.16 µM, first compound 0.1 µM
[27] = second compound 3.16 µM, first compound 0.316 µM
[28] = second compound 3.16 µM, first compound 1 µM
[29] = second compound 3.16 µM, first compound 3.16 µM
[30] = second compound 3.16 µM, first compound 10 µM
[31] = second compound 10 µM, first compound 0.0316 µM
[32] = second compound 10 µM, first compound 0.1 µM
[33] = second compound 10 µM, first compound 0.316 µM
[34] = second compound 10 µM, first compound 1 µM
[35] = second compound 10 µM, first compound 3.16 µM
[36] = second compound 10 µM, first compound 10 µM
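Note: spheroids exposed to compounds for 7 days before viability readout.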
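Throughout, for viability, T/C: luminescence signal used as surrogate for viable cell content; 100% = DMSO vehicle control viability.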

C#Cc1c(F)ccc2cc(O)cc(-c3ncc4c(N5CC6CCC(C5)N6)nc(OCC56CCCN5CC(F)C6)nc4c3F)c12 (stereo not drawn) + Nc1ccc(C#CCN(C(=O)Cc2ncc(C(F)(F)F)cc2C(F)(F)F)c2ccc(F)cc2)nn1
inactive: viability, T/C [1] 102% | viability, T/C [2] 103% | viability, T/C [3] 106% | viability, T/C [4] 99.4% | viability, T/C [5] 105% | viability, T/C [6] 97.1% | viability, T/C [7] 115% | viability, T/C [8] 110% | viability, T/C [9] 96.6% | viability, T/C [10] 108% | viability, T/C [11] 101% | viability, T/C [12] 91.9% | viability, T/C [13] 101% | viability, T/C [14] 106% | viability, T/C [15] 84% | viability, T/C [16] 104% | viability, T/C [17] 98.8% | viability, T/C [18] 86.7% | viability, T/C [19] 108% | viability, T/C [20] 93.8% | viability, T/C [21] 111% | viability, T/C [22] 97.9% | viability, T/C [23] 104% | viability, T/C [24] 95.4% | viability, T/C [25] 106% | viability, T/C [26] 100% | viability, T/C [27] 107% | viability, T/C [28] 106% | viability, T/C [29] 90.7% | viability, T/C [30] 101% | viability, T/C [31] 108% | viability, T/C [32] 98.7% | viability, T/C [33] 104% | viability, T/C [34] 98.2% | viability, T/C [35] 109% | viability, T/C [36] 105%
> 10 µM: IC50 (second compound 0.0316 µM) | IC50 (second compound 0.1 µM) | IC50 (second compound 0.316 µM) | IC50 (second compound 1 µM) | IC50 (second compound 3.16 µM) | IC50 (second compound 10 µM)

CC(C)n1c(=O)n(C)c2cnc3cc(F)c(-c4ccc(OCCCN5CCCCC5)nc4)cc3c21 + Nc1ccc(C#CCN(C(=O)Cc2ncc(C(F)(F)F)cc2C(F)(F)F)c2ccc(F)cc2)nn1
> 10 µM: IC50 (second compound 0.0316 µM) | IC50 (second compound 0.1 µM) | IC50 (second compound 0.316 µM) | IC50 (second compound 1 µM) | IC50 (second compound 3.16 µM) | IC50 (second compound 10 µM)
inactive: viability, T/C [1] 97.1% | viability, T/C [2] 106% | viability, T/C [3] 97.8% | viability, T/C [4] 102% | viability, T/C [5] 99.6% | viability, T/C [6] 107% | viability, T/C [7] 107% | viability, T/C [8] 112% | viability, T/C [9] 97.1% | viability, T/C [10] 108% | viability, T/C [11] 93.8% | viability, T/C [12] 80.5% | viability, T/C [13] 104% | viability, T/C [14] 115% | viability, T/C [15] 97% | viability, T/C [16] 103% | viability, T/C [17] 104% | viability, T/C [18] 72.1% | viability, T/C [19] 109% | viability, T/C [20] 106% | viability, T/C [21] 113% | viability, T/C [22] 96% | viability, T/C [23] 97% | viability, T/C [24] 85.8% | viability, T/C [25] 99.8% | viability, T/C [26] 111% | viability, T/C [27] 92.4% | viability, T/C [28] 102% | viability, T/C [29] 101% | viability, T/C [30] 86.1% | viability, T/C [31] 110% | viability, T/C [32] 101% | viability, T/C [33] 108% | viability, T/C [34] 107% | viability, T/C [35] 104% | viability, T/C [36] 86%

CC1COCCN1c1cc(-c2ccnn2C)c2ccnc(-c3ccn[nH]3)c2n1 (stereo not drawn) + Nc1ccc(C#CCN(C(=O)Cc2ncc(C(F)(F)F)cc2C(F)(F)F)c2ccc(F)cc2)nn1
> 10 µM: IC50 (second compound 0.0316 µM) | IC50 (second compound 0.1 µM) | IC50 (second compound 0.316 µM) | IC50 (second compound 3.16 µM) | IC50 (second compound 10 µM)
inactive: viability, T/C [1] 87.5% | viability, T/C [2] 89.8% | viability, T/C [3] 79.2% | viability, T/C [4] 55.6% | viability, T/C [5] 56.2% | viability, T/C [6] 55.3% | viability, T/C [7] 102% | viability, T/C [8] 80.7% | viability, T/C [9] 77.7% | viability, T/C [10] 53.8% | viability, T/C [11] 57.6% | viability, T/C [12] 54.7% | viability, T/C [13] 95.5% | viability, T/C [14] 99.1% | viability, T/C [15] 70.2% | viability, T/C [16] 60.9% | viability, T/C [17] 51.7% | viability, T/C [18] 53.5% | viability, T/C [19] 96.2% | viability, T/C [20] 86.9% | viability, T/C [21] 78.8% | viability, T/C [22] 58.9% | viability, T/C [23] 58.5% | viability, T/C [24] 45.9% | viability, T/C [25] 88.7% | viability, T/C [26] 94.1% | viability, T/C [27] 79.1% | viability, T/C [28] 59.7% | viability, T/C [29] 49.3% | viability, T/C [30] 66.1% | viability, T/C [31] 102% | viability, T/C [32] 90.1% | viability, T/C [33] 80% | viability, T/C [34] 64.6% | viability, T/C [35] 55.9% | viability, T/C [36] 60.1%
6.51 µM: IC50 (second compound 1 µM)

CC1COCCN1c1cc(C2(S(C)(=N)=O)CC2)nc(-c2ccnc3[nH]ccc23)n1 (stereo not drawn) + Nc1ccc(C#CCN(C(=O)Cc2ncc(C(F)(F)F)cc2C(F)(F)F)c2ccc(F)cc2)nn1
inactive: viability, T/C [1] 103% | viability, T/C [2] 99.2% | viability, T/C [3] 102% | viability, T/C [4] 80.5% | viability, T/C [5] 73.9% | viability, T/C [6] 71% | viability, T/C [7] 107% | viability, T/C [8] 98.4% | viability, T/C [9] 82% | viability, T/C [10] 83.3% | viability, T/C [11] 88.9% | viability, T/C [12] 67.8% | viability, T/C [13] 102% | viability, T/C [14] 92.8% | viability, T/C [15] 84.7% | viability, T/C [16] 92.3% | viability, T/C [17] 78.2% | viability, T/C [18] 69.6% | viability, T/C [19] 90.7% | viability, T/C [20] 90% | viability, T/C [21] 90.8% | viability, T/C [22] 88.5% | viability, T/C [23] 80.2% | viability, T/C [24] 64.4% | viability, T/C [25] 92.2% | viability, T/C [26] 97.1% | viability, T/C [27] 101% | viability, T/C [28] 82.8% | viability, T/C [29] 82% | viability, T/C [30] 73.2% | viability, T/C [31] 105% | viability, T/C [32] 106% | viability, T/C [33] 103% | viability, T/C [34] 110% | viability, T/C [35] 85.5% | viability, T/C [36] 81.3%
> 10 µM: IC50 (second compound 0.0316 µM) | IC50 (second compound 0.1 µM) | IC50 (second compound 0.316 µM) | IC50 (second compound 1 µM) | IC50 (second compound 3.16 µM) | IC50 (second compound 10 µM)
